This is an account of results in patent US7256007B2, “Methods of regulating cytokine signalling” (The Walter and Eliza Hall Institute of Medical Research, priority 2000, dated 2007).

Square brackets hold non-standard residues; d marks the D form. Ends that are not written are not given here. pY = N[C@@H](Cc1ccc(OP(=O)(O)O)cc1)C(=O)O

In one experiment the test system is EPOR/gp130Y757F. The experiment is described as follows: APRE-luc luciferase reporter assay in transiently transfected 293T cells, EPO stimulated. As to conditions: gp130 cytoplasmic domain with Y757F mutation, 10U/ml EPO overnight. It counts as cell-based. The procedure:
Generation of the expression vectors for SOCS-1 and SOCS-3, luciferase assays and Western blot analysis have been described previously (Nicholson et al., 1999). Briefly, 293T cells were transiently transfected with SOCS expression plasmids, a LIF-responsive reporter construct (APRE-luc; Endo et al., 1997) and a β-galactosidase reporter construct under a constitutive promoter (Srα-β-gal; Ogilvy et al., 1998). Luciferase activity from triplicate samples was determined and normalized against β-galactosidase activity.
It was therefore important to confirm these findings using a biological assay. A chimeric receptor was created that contained the erythropoietin receptor (EPOR) extracellular domain and the gp130 cytoplasmic domain (EPOR/gp130). A second receptor was created containing the EPO receptor extracellular domain and the gp130 cytoplasmic domain in which tyrosine 757 had been mutated to phenylalanine (EPOR/gp130Y757F). 293T cells were transiently transfected with cDNAs expressing the receptor constructs and either SOCS-3 or SOCS-1 in the presence of the APRE-luc and Srα-β-gal reporter genes. Cells were then incubated in the presence of 10U/ml EPO overnight and luciferase activity determined. Mutation of Y757 in the gp130 cytoplasmic domain has been reported to result in a hyperactive receptor complex, presumably from the loss of a negative regulator such as SHP-2. […]
For orientation: Reporter assays use an easily measured gene product as a stand-in for the process of interest.

The next experiment addresses T1, SOCS-3 (Mus musculus, UniProt O35718).
T1 construct: hexahistidine (pET15b) (N); made in house; host or cells: E. coli BL21 DE3 pLysS
T1 sequence (O35718 1-225): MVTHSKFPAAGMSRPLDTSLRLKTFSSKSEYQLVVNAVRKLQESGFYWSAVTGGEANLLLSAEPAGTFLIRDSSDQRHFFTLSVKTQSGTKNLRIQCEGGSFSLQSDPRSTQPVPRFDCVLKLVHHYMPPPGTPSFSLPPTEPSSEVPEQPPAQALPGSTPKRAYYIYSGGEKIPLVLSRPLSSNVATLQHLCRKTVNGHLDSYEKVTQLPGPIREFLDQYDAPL
The experiment is described as follows: Biosensor (SPR) analysis of recombinant SOCS-3 binding to immobilized biotinylated phosphopeptide. Also noted: species or system murine. As to conditions: non-specific control channel on the same chip. The procedure:
Purified protein was refolded by dialysis into PBS containing 2 mM DTT, 2 mM EDTA and 0.02% v/v Tween 20. Refolded material was purified to homogeneity by ion exchange chromatography on a Mono S column (Pharmacia).
Phosphopeptides containing an N-terminal biotin moiety were immobilized onto a streptavidin-coated Biosensor chip (Pharmacia) at a density of ˜200 Resonance Units (Rus). […] Binding profiles were analyzed using the BIAevaluation software version 3.0 (Pharmacia).

Chain of EPOR/gp130Y757F (Q00560 640-917 Y757F limits assumed): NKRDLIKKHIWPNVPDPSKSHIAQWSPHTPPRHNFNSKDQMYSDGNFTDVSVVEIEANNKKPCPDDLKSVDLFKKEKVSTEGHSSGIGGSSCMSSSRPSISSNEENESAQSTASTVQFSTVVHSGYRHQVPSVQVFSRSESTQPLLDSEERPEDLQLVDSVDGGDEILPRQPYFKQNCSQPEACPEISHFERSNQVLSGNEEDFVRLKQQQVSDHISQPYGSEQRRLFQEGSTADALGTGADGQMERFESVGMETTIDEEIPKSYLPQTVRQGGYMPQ

As for “SOCS-3: suppressor of cytokine signaling 3, expressed from transfected cDNA in 293T cells”, in the experiment with EPOR/gp130Y757F, the “SOCS-3 DNA giving 50% inhibition of luciferase activity” value came to 54 ng.

For “FNSKDQM(pY)SDGNFTD (FNSKDQM[pY]SDGNFTD-NH2; N-terminus assumed; SMILES CSCC[C@H](NC(=O)[C@H](CCC(N)=O)NC(=O)[C@H](CC(=O)O)NC(=O)[C@H](CCCCN)NC(=O)[C@H](CO)NC(=O)[C@H](CC(N)=O)NC(=O)[C@@H](N)Cc1ccccc1)C(=O)N[C@@H](Cc1ccc(OP(=O)(O)O)cc1)C(=O)N[C@@H](CO)C(=O)N[C@@H](CC(=O)O)C(=O)NCC(=O)N[C@@H](CC(N)=O)C(=O)N[C@@H](Cc1ccccc1)C(=O)N[C@H](C(=O)N[C@@H](CC(=O)O)C(N)=O)[C@@H](C)O) [gp30(674-688) phosphopeptide, non-cognate gp130 phosphopeptide immobilized as non-specific control]”, the “specific binding of SOCS-3 to immobilized peptide” value with SOCS-3 is “no specific binding was detected”.
